Data reported in a melting point compilation (Tetko et al.; mined from patent text by program, amines drawn as free bases though some values may be those of a salt).

| SMILES | melting point [°C] |
| --- | --- |
| c1ccc(-n2c3c(c4ccccc42)CCNCC3)cc1 | 174 to 180 |
| C=Cc1cc(Cl)c(N)c(Cl)c1 | 63 |
| OC1(c2cc(F)cc(CC#COC#CCc3cc(F)cc(C4(O)CCOCC4)c3)c2)CCOCC1 | 120 to 122 |
| CC1(C)CC(O)CC(C)(C)N1OC1C=CCCC1 (centres undefined) | 65 to 66.5 |
| CCOC(=O)c1nc2c(Cl)nc3cc(C(F)(F)F)ccc3n2c1CBr | 196 to 198 |
| Fc1ccc2c(CN3CCc4ccccc4C3)c[nH]c2c1 | 144 to 145 |
| CCCN(CC(=O)Nc1c(OC)nc(C)nc1OC)c1ccccc1 | 173 to 174 |
| O=C(Cc1ccccc1Nc1c(Cl)cccc1Cl)OCc1ccncc1 | 121 to 123 |
| COc1ccccc1/C=C/C(=O)/C=C/c1ccccc1OC | 124 to 126 |
| O=C(OCCN1CCOCC1)c1ccc(-c2n[nH]c3c2Cc2ccccc2-3)cc1 | 168 to 172 |
| C#CCSc1ccc([N+](=O)[O-])cn1 | 98 to 99.5 |
| O=S(=O)(CCl)Nc1ccc(F)cc1Cl | 83 to 85 |
| Cc1cc(C2=NOC(c3cc(Cl)cc(Cl)c3)(C(F)(F)F)C2)ccc1C(=O)Nc1ncccn1 (centres undefined) | 122 to 124 |
| CN(C)Cc1ccccc1C(O)c1ccsc1 (centres undefined) | 77 to 78 |
| O=C(O)CCCCCCOc1ccc(OCc2ccccc2)cc1 | 118 to 119 |
| CCCCc1ccc(N(Cc2ccc(N(C)C)cc2)C(=O)C2CCCc3c(O)cccc32)cc1 (centres undefined) | 138 |
| CCS(=O)CCn1nc(-c2cccc(Cl)c2Cl)c(=O)c2cccc(OC)c21 (centres undefined) | 128 to 130 |
| CNC(=O)c1ccccc1Nc1nc(Nc2ccc3c(c2)CCCC(=O)N3C)ncc1Cl | 244 to 246 |
| COCc1cnc2c(NC(=O)c3ccccc3C(F)(F)F)cccc2c1-n1ccnc1 | 126 to 127 |

| SMILES | melting point [°C] |
| --- | --- |
| CC(=NOCc1ccccc1)C(C)Oc1ccccc1NC(=O)c1cccnc1Cl (centres undefined) | 53 to 55 |
| CN(Cc1ccc(-c2ccc(O)c(Br)c2)cc1)C(=O)c1cn(C)c2ccccc12 | 237 to 239 |
| O=C(O)C1=Cc2cccc(F)c2OC1C(F)(F)F (centres undefined) | 198 to 210 |
| COc1c(F)cc(Cn2cc[nH]c2=S)cc1F | 156 to 158 |
| NC(=O)C1(O)c2ccccc2S(=O)(=O)N1Cc1ccc(Br)cc1F (centres undefined) | 182 to 184 |
| CN1C(=O)N(Cc2cc(C(F)(F)F)cc(C(F)(F)F)c2)CC1(CCO)c1ccc(Cl)c(Cl)c1 (centres undefined) | 96 |
| Cc1cnc2n1-c1cc(Cl)c(Cl)cc1N=C(c1ccc(-n3c(C)nc4cnccc43)cc1)C2 | 243 to 246 |
| CC(=O)Nc1ccc(C[C@H](NC(=O)N(CCOC(C)=O)CCc2ccccc2)C(=O)NCCN(C)C)cc1 | 87 to 100 |
| CC(Cc1ccc(OCC(N)=O)cc1)NCC(OCCO)c1ccc(O)cc1 (centres undefined) | 145 to 160 |
| CN1C(=O)CCCc2ccc(NC(=O)c3ccc(C(=O)O)cc3)cc21 | > 270 |
| CC1CCc2ncc(C(=O)NN)c(=O)n21 (centres undefined) | 136 to 137 |
| CC12CCC(C(=O)Nc3ccc(CC#N)cc3)(OC1=O)C2(C)C (centres undefined) | 147 to 152 |
| O=C(CCN1CCCC1)Nc1ccc2c(c1)C(=O)c1cc(NC(=O)CCN3CCCC3)ccc1C2=O | 233 |
| CS(=O)(=O)Nc1cc(NC(=O)CN)c([N+](=O)[O-])cc1Oc1ccccc1 | 208 to 210 |
| Nc1ccc2c(c1)C(=O)N(CCO)CO2 | 94 to 96 |
| Nc1cccc(OCCN2CCc3ccccc3C2)c1N | 76 to 77 |
| CN1CC(=O)OC2(CCN(CC=CC(=O)Nc3cc4c(Nc5ccc(F)c(Cl)c5)ncnc4cc3OCC3CC3)CC2)C1 | 125 to 130 |
| CCCCNC(C)=C1C(=O)OC(=O)C(C(C)=O)=C1O | 112 to 114 |
| COC(=O)c1ccccc1-c1noc(-c2cccc(C(F)(F)F)c2)n1 | 84.5 to 86.5 |

More lines, now with the values ahead:

| melting point [°C] | SMILES |
| --- | --- |
| 118 to 120 | CCN(CCSCc1[nH]cnc1C)C(=N)NC#N |
| 179 to 180 | O=C1OCCC1n1nc(-c2c(-c3ccccc3)nn3ccccc23)ccc1=O (centres undefined) |
| 93.1 | CN1CCC(=C(c2ccc(F)cc2)c2cccnc2)CC1 |
| 173 to 175 | Cc1cnc(C2=NC(C)(C(C)C)C(=O)N2)c(C(=O)c2ccc(C)s2)c1 (centres undefined) |
| 60 to 64.5 | COc1ccc2c(c1)c(Cc1cc(=O)n(-c3cccc(C(F)(F)F)c3)[nH]1)c(C)n2C(=O)c1ccccc1 |
| 87 to 89 | NC(=O)CCCCCc1ccc(Cl)cc1 |
| 175 to 177 | NC(=O)C(Cc1ccccc1N1CCCCC1)c1ccc(C(=O)O)cc1 (centres undefined) |
| 124 | O=C(Nc1ccc(Cl)cc1)O[C@@H]1CN=C(c2ccccc2)O[C@H]1c1ccccc1 (racemic) |
| 236 to 238 | CN(C)c1nc2cc(N)ccn2n1 |
| 62 to 64 | O=S(=O)(Nc1cccc(/C=C/c2ccccc2)c1)C(F)(F)F |
| 108 to 110 | CCCc1c(OCCOc2ccccc2C(=O)O)ccc(C(C)=O)c1O |
| 226 to 229 | CC1=C(C#N)C(=C(C#N)C#N)OC1(C)c1ccc(Cl)c(Cl)c1 (centres undefined) |
| 69 to 72 | O=C(Cn1cnnn1)OCc1ccccc1 |
| 146 to 148 | COc1cc(N)c(Cl)cc1C(=O)NCC1CCN(CCCSc2ccccc2)CC1 |
| 225 | CN1CCC(C2(O)c3ccccc3CCn3cc(-c4ccccc4)nc32)CC1 (centres undefined) |
| 237 to 247 | O=C(O)c1cc2c(c(-c3ccccc3)c1)C(=O)OC2=S |
| 77 to 80 | CCNC(=O)c1sc(C)c(C)c1[Si](C)(C)C |
| 245 | N#Cc1ccc(-c2n[nH]c3c2Cc2ccccc2-3)cc1 |

| melting point [°C] | SMILES |
| --- | --- |
| 154 to 156 | CCOC(=O)C1=C(C)NC(=O)N(CCCN(C)Cc2ccccc2)C1c1cccc(Cl)c1Cl (centres undefined) |
| 36 to 38 | CC(C)COC[C@H](CC(C)C)NC(=O)[C@H]1O[C@@H]1C(=O)OC(C)C |
| 83 to 87 | Nc1ccccc1CN(N)c1ccc(Cl)cc1 |
| 182 to 184 | Cc1ccc(C(=O)c2c(N)cc(C(=O)O)cc2OCc2ccccc2)cc1 |
| 240 to 243 | Cc1nc(NC(=O)n2ccnc2)sc1-c1ccnc(CC2CC2)n1 |
| 125 to 126 | S=C1Nc2c(Cl)cccc2CS1 |
| 156 to 159 | Cc1ccc2c(c1)Oc1ccc([N+](=O)[O-])cc1C(=O)N2C |
| 182 to 183 | CNC(=S)C1(c2ccncc2)CCCCC1=O (centres undefined) |
| 225 to 258 | COc1cc(Br)c(S(C)(=O)=O)cc1C(=O)O |
| 154 to 156 | O=NN1CCN(c2ccc(Cl)cc2)C1=O |
| 91.1 | CCCn1nnn(-c2ccc([N+](=O)[O-])cc2)c1=O |
| 152 to 153 | CN1CCN(c2ccc(C(=O)CCC(=O)N3CCC(c4ccc(Cl)cc4)CC3)cc2)CC1 |
| 63 to 66 | COC(=O)c1sccc1-c1ccccc1 |
| 410 | O=c1[nH]c2c(cc1S(=O)(=O)c1ccccc1)CCc1cc[nH]c1-2 |
| 109 to 111 | COc1cc(CCNC(=O)N(C)O)ccc1OCc1ccccc1 |
| 290 to 293 | CC(=O)NS(=O)(=O)c1cc(C(=O)O)cc(N)c1Oc1ccccc1 |
| 180 to 181 | O=C(c1ccccc1F)c1cc2c(c(Cl)c1Cl)OC(C(=O)O)C2 (centres undefined) |
| 123 to 124 | CCOc1cc(Oc2cc(C)[nH]n2)ccc1[N+](=O)[O-] |
